Experimental data reported in ChEMBL document CHEMBL1145420, “On sampling of fragment space” (J Med Chem, 2007).

Key:
[1] = molecular target: Dipeptidyl peptidase 8 (Homo sapiens) (UniProt Q6V1X1); test: Inhibition of DPP8
[2] = molecular target: Dipeptidyl peptidase 9 (Homo sapiens) (UniProt Q86TI2); test: Inhibition of DPP9
[3] = molecular target: Dipeptidyl peptidase 2 (Homo sapiens) (UniProt Q9UHL4); test: Inhibition of QPP
[4] = molecular target: T1, Prolyl endopeptidase (Homo sapiens) (UniProt P48147); test: Inhibition of PEP
T1 sequence (whole entry): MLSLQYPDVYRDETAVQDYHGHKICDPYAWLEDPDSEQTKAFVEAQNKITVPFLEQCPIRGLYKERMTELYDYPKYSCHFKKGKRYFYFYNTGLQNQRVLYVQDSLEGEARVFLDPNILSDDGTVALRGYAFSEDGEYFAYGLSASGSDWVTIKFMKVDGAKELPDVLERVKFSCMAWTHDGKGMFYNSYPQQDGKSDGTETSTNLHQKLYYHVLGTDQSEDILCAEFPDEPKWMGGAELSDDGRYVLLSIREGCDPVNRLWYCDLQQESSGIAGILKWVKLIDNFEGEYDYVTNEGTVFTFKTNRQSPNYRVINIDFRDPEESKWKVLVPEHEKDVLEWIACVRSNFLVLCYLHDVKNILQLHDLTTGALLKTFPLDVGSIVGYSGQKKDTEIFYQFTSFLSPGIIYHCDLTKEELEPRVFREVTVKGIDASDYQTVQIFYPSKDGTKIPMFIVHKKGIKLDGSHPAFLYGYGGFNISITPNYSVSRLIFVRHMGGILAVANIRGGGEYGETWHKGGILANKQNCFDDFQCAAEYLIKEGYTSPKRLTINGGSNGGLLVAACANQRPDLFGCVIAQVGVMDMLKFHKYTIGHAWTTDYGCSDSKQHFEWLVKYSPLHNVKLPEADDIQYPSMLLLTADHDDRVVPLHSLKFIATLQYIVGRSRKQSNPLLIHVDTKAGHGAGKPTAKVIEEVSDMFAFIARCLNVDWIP

[5] = molecular target: Prolyl endopeptidase FAP (Homo sapiens) (UniProt Q12884); test: Inhibition of FAP
Chain of Prolyl endopeptidase FAP (Homo sapiens) (Q12884 whole entry): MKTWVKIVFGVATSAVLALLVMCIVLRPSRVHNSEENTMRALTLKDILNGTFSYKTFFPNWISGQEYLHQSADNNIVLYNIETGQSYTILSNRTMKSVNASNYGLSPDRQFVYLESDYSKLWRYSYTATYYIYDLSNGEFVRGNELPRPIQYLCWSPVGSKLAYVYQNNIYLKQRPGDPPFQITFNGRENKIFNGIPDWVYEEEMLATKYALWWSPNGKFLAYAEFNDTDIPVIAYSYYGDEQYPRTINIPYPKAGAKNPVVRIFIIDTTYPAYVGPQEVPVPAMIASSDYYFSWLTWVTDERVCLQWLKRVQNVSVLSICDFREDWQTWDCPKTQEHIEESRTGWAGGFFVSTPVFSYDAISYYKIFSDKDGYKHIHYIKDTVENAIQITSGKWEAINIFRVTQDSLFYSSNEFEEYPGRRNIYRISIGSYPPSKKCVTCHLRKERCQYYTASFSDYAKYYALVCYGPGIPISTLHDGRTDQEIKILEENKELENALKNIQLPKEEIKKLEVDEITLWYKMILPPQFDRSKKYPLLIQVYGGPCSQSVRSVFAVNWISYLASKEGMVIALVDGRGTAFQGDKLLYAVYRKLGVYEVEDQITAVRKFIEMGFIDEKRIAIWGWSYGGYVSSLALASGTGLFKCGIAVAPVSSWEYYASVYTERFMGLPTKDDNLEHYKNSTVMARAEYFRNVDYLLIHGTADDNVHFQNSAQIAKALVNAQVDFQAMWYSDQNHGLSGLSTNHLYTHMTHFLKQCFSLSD

Chain of Dipeptidyl peptidase 8 (Homo sapiens) (Q6V1X1 whole entry, looked up): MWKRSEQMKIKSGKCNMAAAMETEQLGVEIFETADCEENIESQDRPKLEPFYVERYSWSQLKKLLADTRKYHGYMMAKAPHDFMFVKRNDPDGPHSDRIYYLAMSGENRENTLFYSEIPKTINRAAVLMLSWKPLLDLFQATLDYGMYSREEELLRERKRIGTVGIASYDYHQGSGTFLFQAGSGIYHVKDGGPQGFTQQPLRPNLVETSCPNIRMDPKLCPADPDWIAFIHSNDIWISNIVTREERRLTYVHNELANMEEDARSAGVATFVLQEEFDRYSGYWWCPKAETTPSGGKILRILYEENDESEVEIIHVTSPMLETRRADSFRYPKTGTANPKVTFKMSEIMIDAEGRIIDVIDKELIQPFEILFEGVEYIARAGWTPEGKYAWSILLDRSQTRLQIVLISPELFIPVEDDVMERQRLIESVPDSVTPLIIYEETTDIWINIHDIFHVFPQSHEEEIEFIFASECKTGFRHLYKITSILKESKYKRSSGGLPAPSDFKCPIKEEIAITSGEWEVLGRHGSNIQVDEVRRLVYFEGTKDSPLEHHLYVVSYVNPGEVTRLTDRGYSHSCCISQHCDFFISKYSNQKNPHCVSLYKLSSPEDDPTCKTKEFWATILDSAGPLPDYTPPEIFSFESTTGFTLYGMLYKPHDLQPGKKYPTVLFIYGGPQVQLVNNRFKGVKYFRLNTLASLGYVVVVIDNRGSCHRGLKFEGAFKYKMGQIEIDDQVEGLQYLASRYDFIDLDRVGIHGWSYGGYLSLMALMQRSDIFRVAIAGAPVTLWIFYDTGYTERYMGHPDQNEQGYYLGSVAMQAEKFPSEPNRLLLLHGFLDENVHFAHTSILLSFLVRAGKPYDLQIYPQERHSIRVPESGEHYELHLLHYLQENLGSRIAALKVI
Chain of Dipeptidyl peptidase 9 (Homo sapiens) (Q86TI2 2-863 limits assumed): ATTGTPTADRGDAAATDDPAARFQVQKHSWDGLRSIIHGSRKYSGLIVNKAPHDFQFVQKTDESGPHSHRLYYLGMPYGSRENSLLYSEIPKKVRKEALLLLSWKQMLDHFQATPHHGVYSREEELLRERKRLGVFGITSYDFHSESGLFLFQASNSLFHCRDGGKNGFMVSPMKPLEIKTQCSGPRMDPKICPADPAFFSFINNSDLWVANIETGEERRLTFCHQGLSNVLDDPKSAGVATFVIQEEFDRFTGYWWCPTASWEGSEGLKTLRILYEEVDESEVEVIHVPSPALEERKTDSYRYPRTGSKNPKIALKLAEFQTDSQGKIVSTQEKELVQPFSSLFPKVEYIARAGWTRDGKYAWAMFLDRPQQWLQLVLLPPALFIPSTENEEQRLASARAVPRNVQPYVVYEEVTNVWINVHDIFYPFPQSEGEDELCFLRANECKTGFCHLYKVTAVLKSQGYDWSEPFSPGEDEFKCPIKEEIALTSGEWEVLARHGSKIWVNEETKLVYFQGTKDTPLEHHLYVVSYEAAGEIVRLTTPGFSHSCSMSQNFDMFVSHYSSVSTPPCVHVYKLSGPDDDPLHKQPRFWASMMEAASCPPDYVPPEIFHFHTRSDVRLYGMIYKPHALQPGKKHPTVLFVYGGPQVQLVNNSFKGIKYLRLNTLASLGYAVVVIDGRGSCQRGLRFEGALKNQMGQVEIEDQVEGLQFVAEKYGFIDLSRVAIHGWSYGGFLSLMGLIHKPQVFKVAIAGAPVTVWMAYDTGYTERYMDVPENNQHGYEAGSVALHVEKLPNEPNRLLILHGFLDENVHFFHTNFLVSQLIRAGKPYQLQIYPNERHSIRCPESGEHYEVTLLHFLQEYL

CNC(=O)C[C@H](N)Cc1ccccc1
Activity [1]: 460 µM
Activity [2]: > 1000 µM
Activity [3]: 680 µM
Activity [4]: > 1000 µM
Activity [5]: > 1000 µM

N[C@@H](CC(=O)N1CCC[C@H]1C(=O)NCc1cc(Cl)ccc1OCC(=O)NC1CC1)Cc1ccccc1
Activity [1]: > 10 µM
Activity [2]: > 100 µM
Activity [3]: 66 µM
